Source: ChEMBL document CHEMBL2040784, “Design and synthesis of peptides from bacterial ParE toxin as inhibitors of topoisomerases” (Eur J Med Chem, 2012)
Active and inactive are the calls of the source. The calls are words filed in the database; no cut-off is given here. Where a SMILES comes first, the peptide text is derived from it.

Experiments:
[1] = target: DNA topoisomerase 2-alpha (Homo sapiens) (UniProt P11388); experiment: Inhibition of human topoisomerase 2-mediated DNA cleavage assessed as relaxation of supercoiled pBR322 after 1 hr by gel electrophoresis assay
Escherichia coli [2] = experiment: Inhibition of Escherichia coli DNA gyrase supercoiling activity using relaxed pBR322 DNA after 1 hr by gel electrophoresis assay
Escherichia coli [3] = experiment: Inhibition of Escherichia coli topoisomerase-4-mediated DNA cleavage assessed as relaxation of supercoiled pBR322 after 1 hr by gel electrophoresis assay
Escherichia coli [4] = experiment: Inhibition of Escherichia coli topoisomerase-4-mediated DNA cleavage assessed as relaxation of supercoiled pBR322 at <75 umol/L after 1 hr by gel electrophoresis assay
Escherichia coli [5] = experiment: Inhibition of Escherichia coli DNA gyrase supercoiling activity using relaxed pBR322 DNA at 20 umol/L after 1 hr by gel electrophoresis assay

DNA topoisomerase 2-alpha (Homo sapiens), sequence (P11388 whole entry): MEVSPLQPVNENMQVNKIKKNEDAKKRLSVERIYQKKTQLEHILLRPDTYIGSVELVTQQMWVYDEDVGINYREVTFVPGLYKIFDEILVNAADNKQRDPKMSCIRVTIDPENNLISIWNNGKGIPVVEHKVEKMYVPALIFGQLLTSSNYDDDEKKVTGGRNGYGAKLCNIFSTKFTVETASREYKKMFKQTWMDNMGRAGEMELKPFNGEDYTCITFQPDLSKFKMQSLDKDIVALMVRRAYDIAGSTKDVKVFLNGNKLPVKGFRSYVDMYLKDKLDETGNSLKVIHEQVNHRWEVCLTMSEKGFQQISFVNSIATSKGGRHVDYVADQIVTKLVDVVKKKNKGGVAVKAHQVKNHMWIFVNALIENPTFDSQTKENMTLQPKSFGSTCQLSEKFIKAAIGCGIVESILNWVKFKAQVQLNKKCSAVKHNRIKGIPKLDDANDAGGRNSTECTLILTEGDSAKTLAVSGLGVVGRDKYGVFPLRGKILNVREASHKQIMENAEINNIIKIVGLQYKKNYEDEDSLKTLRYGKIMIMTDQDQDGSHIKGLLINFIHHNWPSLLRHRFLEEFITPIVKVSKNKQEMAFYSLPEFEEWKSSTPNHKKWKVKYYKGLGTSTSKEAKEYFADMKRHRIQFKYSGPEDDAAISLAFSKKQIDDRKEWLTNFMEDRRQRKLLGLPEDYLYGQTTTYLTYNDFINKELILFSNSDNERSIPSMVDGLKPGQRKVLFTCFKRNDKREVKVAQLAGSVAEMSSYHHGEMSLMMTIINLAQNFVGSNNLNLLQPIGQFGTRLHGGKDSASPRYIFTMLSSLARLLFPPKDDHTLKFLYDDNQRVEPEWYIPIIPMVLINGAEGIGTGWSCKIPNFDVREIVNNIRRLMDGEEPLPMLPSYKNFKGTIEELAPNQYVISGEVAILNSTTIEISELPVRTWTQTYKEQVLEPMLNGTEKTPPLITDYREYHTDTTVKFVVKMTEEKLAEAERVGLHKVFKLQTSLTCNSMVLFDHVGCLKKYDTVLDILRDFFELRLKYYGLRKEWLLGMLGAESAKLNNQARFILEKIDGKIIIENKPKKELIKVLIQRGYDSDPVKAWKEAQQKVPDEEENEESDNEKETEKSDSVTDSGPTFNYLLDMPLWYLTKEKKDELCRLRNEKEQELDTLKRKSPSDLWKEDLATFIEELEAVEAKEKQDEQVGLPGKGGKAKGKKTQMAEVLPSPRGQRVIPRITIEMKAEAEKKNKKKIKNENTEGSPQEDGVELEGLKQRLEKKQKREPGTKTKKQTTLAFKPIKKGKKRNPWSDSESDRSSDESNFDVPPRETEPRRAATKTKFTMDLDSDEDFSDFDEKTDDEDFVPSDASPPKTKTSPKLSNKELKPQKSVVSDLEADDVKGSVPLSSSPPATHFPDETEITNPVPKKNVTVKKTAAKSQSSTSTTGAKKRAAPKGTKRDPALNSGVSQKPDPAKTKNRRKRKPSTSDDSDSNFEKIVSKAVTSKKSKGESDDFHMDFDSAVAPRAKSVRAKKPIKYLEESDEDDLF

Row | Compound | IC100 [1] [µmol/L] | IC100 (Escherichia coli [2]) [µmol/L] | IC100 (Escherichia coli [3]) [µmol/L] | inhibition [1] | inhibition (Escherichia coli [4]) | inhibition (Escherichia coli [5]) [%]
1 | CC[C@H](C)[C@H](NC(=O)[C@H](CCSC)NC(=O)[C@H](CCCNC(=N)N)NC(=O)[C@@H](N)CC(C)C)C(=O)N[C@@H](Cc1cnc[nH]1)C(=O)N[C@@H](CS)C(=O)N[C@@H](CCC(=O)O)C(=O)N[C@@H](Cc1cnc[nH]1)C(=O)N[C@@H](Cc1cnc[nH]1)C(=O)N[C@@H](Cc1ccc(O)cc1)C(=O)N[C@H](C(=O)N[C@@H](Cc1ccccc1)C(=O)N[C@@H](CS)C(=O)N[C@@H](CC(C)C)C(=O)N1CCC[C@H]1C(=O)N[C@@H](Cc1cnc[nH]1)C(=O)NCC(=O)N[C@@H](CO)C(=O)N[C@@H](C)C(=O)O)C(C)C (H-LRMIHCEHHYVFCLPHGSA-OH) | 50 | 50 | 25 |  |  | 
2 | CC[C@H](C)[C@H](NC(=O)[C@H](C)NC(=O)[C@@H](NC(=O)[C@@H](NC(=O)[C@H](CC(C)C)NC(=O)[C@H](C)NC(=O)[C@@H]1CCCN1C(=O)[C@H](C)NC(=O)[C@H](CO)NC(=O)CNC(=O)[C@H](Cc1cnc[nH]1)NC(=O)[C@@H]1CCCN1C(=O)[C@H](CC(C)C)NC(=O)[C@H](CS)NC(=O)[C@H](Cc1ccccc1)NC(=O)[C@@H](NC(=O)[C@H](Cc1ccc(O)cc1)NC(=O)[C@H](Cc1cnc[nH]1)NC(=O)[C@H](Cc1cnc[nH]1)NC(=O)[C@H](CCC(=O)O)NC(=O)[C@H](CS)NC(=O)[C@H](Cc1cnc[nH]1)NC(=O)[C@@H](NC(=O)[C@H](CCSC)NC(=O)[C@H](CCCNC(=N)N)NC(=O)[C@@H](N)CC(C)C)[C@@H](C)CC)C(C)C)C(C)C)C(C)C)C(=O)N[C@@H](Cc1ccccc1)C(=O)O (H-LRMIHCEHHYVFCLPHGSAPALVVAIF-OH) |  |  |  | inactive |  | 
3 | H-HYVFCLPHGSAPALVVAIFHERMDLMARLSERLNIES-OH |  |  |  |  | inactive | 
4 | H-PALVVAIFHERMDLMARLSER-OH |  | > 20 | 10 | inactive |  | 93
